# Test results as given in US12624350B2, “High-throughput single-nuclei and single-cell libraries and methods of making and of using” (ILLUMINA, INC., priority 2019, dated 2026).
# Test system: HEK293T cells
# Test: flavopiridol time course, sci-RNA-seq with hash ladder
# Assay type: cell-based, human
# Settings: 300 nM, longest exposure times
# Method: For the flavopiridol time course experiment, HEK293T cells were seeded onto a 6-well culture plate at a density of 4×10^5 cells per well. For the HDAC inhibitor time course and HDAC inhibitor and Dexamethasone co-treatment experiments, A549 cells were seeded onto a 96-well culture plate at a density of 2.5×10^4 cells per well.
# The cells were grown for 24 hours after they were seeded onto the cell culture plates. For the flavopiridol time course experiment, 0.9 uL of 1 mM flavopiridol was added to each 6 well to attain final concentration of 300 nM. […]
# The capture of hash ladder by nuclei is determined by factors including, but not limited to, sample processing and sequencing depth. […] We empirically determined that the ladder should be constructed so that around 6 million hash molecules are captured per nuclei (assuming that each nucleus takes up equal amount of hash molecules in the solution) to obtain a median hash UMI count of 1,000-5,000. […]
# For the harvest of cells, media was removed and cells were washed with DPBS and dissociated off the plate using trypLE. […] Cells were then counted with a hemocytometer using 0.4% Trypan Blue. […]
# Isolated and hashed nuclei were then permeabilized in permeabilization buffer (0.25% Triton-X in NSB) for 3 minutes on ice and then spun down. […] Cell counts were obtained by staining nuclei with 0.4% Trypan Blue (Sigma-Aldrich) and counted using a hemocytometer. […]
smiles,measurement,value
CN1CC[C@H](c2c(O)cc(O)c3c(=O)cc(-c4ccccc4Cl)oc23)[C@H](O)C1 [flavopiridol],RNA recovery per-cell (total RNA UMI counts),greatest reduction in RNA recovery per-cell
